Data published in the NIST ThermoML archive (doi:10.1021/je300482b).

Test: xn = mol fraction of the nth substance listed
Conditions: Liquid, Vibrating tube method

CCCCCCCCCCCCCCCC [hexadecane] + CCCCCCCCCC
mass density [kg/m3]
Conditions	1000 kPa	2000 kPa	3000 kPa	4000 kPa	5000 kPa	6000 kPa	7000 kPa	8000 kPa	9000 kPa	10000 kPa
295 K, x2 = 0.25	760.6	761.3	762	762.6	763.3	764	764.6	765.3	765.9	766.6
295 K, x2 = 0.75	739.6	740.4	741.1	741.8	742.5	743.3	744	744.7	745.4	746.2
295.3 K, x2 = 0.5	751	751.7	752.4	753.1	753.8	754.5	755.1	755.8	756.5	757.2
